≈ marks a conversion by molar mass, not a printed value.
Columns and labels:
penicillinase = assay: Color change / absorbance spectrum in penicillinase; type: biochemical; conditions: for Absorbance/time response in penicillinase, comparison with CENTA: FIG. 5
Text: FIG. 3 is a set of absorbance spectrum charts showing the color change of Compound 1 (ANT) in the presence of a β-lactamase came with a definite shift in Compound 1 (ANT) absorbance spectrum upon adding penicillinase, thus cleaving the β-lactam ring and expelling the 3′-leaving group. […] As the β-lactam ring is cleaved by the enzymes, the peak at 260 nm disappears.
FIG. 5 is a comparison between Compound 1 (ANT) response and CENTA response.
FIG. 6 is a chart showing deprotected ANT-maleimide in penicillinase, measuring the absorbance of conjugate at different time points.

gram-negative species = conditions: cited from earlier work
Staphylococcus aureus = conditions: cited from earlier work
E. coli 25922 = assay: Microdilution assay, antibacterial efficacy (MIC); type: cell-based; conditions: Escherichia coli, Gram −, βL producing Yes, 18 h, 37° C.
Protocol: (§1) The antibacterial effect of Substrate Compound 2 was tested against Staphylococcus aureus, Escherichia coli, MRSA, and Pseudomonas aeruginosa in a microdilution assay. Substrate Compound 2 was dissolved in dimethyl sulfoxide at a concentration of 2.56 mg/mL and diluted to a concentration of 256 μg/mL in sterile phosphate-buffered saline. Substrate Compound 2 solutions and a control of 10% dimethyl sulfoxide in cation-adjusted Mueller Hinton broth (CMHB) or tryptic soy broth (TSB) were serially diluted 1:2 with cation-adjusted Mueller Hinton broth or tryptic soy broth in a 96-well plate. Cation-adjusted Muller-Hinton broth (CMHB) is commercially available from MilliporeSigma (Billerica, MA, USA).
(§2) Bacteria in its log phase was added to the wells at a final concentration of 10^5 CFU/mL. Positive controls of bacteria cultured in only media and negative controls of cation-adjusted Mueller Hinton broth or tryptic soy broth without bacteria were included. After eighteen hours of shaking at 100 rpm at 37° C., the optical density at 600 nm (OD600) was measured using a BioTekQ® normalized bacteria density was calculated using equation 1: […]

P. aeruginosa PA01 = assay: Microdilution assay, antibacterial efficacy (MIC); type: cell-based; conditions: Pseudomonas aeruginosa, Gram −, βL producing Yes, 18 h, 37° C.
Protocol: as §1, §2

S. aureus 25923 = assay: Microdilution assay, antibacterial efficacy (MIC); type: cell-based; conditions: Staphylococcus aureus, Gram +, βL producing No, 18 h, 37° C.
Protocol: as §1, §2

S. aureus 29213 = assay: Microdilution assay, antibacterial efficacy (MIC); type: cell-based; conditions: Staphylococcus aureus, Gram +, βL producing Yes, 18 h, 37° C.
Protocol: as §1, §2

MRSA MW2 = assay: Microdilution assay, antibacterial efficacy (MIC); type: cell-based, methicillin-resistant Staphylococcus aureus; conditions: Staphylococcus aureus, Gram +, βL producing Yes, 18 h, 37° C.
Protocol: as §1, §2

B. cereus = assay: Microdilution assay, antibacterial efficacy (MIC); type: cell-based; conditions: Bacillus cereus, Gram +, βL producing Yes, 18 h, 37° C.
E. cloacae = assay: Microdilution assay, antibacterial efficacy (MIC); type: cell-based; conditions: Enterobacter cloacae, Gram −, βL producing Yes, 18 h, 37° C.
[1] = biological target: T1, β-lactamase from Bacillus cereus (Bacillus cereus, UniProt P04190); type: biochemical
T1 construct: purchased MilliporeSigma
Protocol: (§3) Substrate Compound 2 was tested with a class B β-lactamase from Bacillus cereus (Bebrone et al., Antimicrobial Agents Chemother., 45, 1868-1871 (2001)). Substrate Compound 2 was tested with class C β-lactamases (from Pseudomonas aeruginosa (Mirsalehian et al., Iranian J. Microbiol., 6, 306-310 (2014)) and β-lactamase from Enterobacter cloacae (Seeberg, Tolxdorff-Neutzling & Wiedemann, Antimicrobial Agents Chemother., 23, 918-925 (1983)). These bacteria are present in many infections, including wounds. See, Bodey et al., Clinical Infectious Diseases, 5, 279-313 (2011) and Davin-Regli & Pages, Frontiers in Microbiology, 6, 392 (2015).
The inventors measured the concentration-dependent absorbance shift in a spectral scan of Substrate Compound 2 with different concentrations (U/mL) of β-lactamase from Bacillus cereus or in phosphate-buffered saline after 45 minutes at 37° C. The absorbance signal at 410 nm increased to a maximum as a function of β-lactamase concentration. The inventors also performed these measurements for β-lactamase from Pseudomonas aeruginosa and Enterobacter cloacae.
96-well plate. […] The samples of Substrate Compound 2 in β-lactamases from Bacillus cereus (200 U/mL in M sodium phosphate buffer, pH 7) were incubated for thirty minutes at 37° C. before the absorbance of the solution from 230 to 650 nm was measured using a BioTekQ® […]

[2] = biological target: T2, β-lactamase from Enterobacter cloacae (Enterobacter cloacae, UniProt P05364); assay: Colorimetric / UV-vis response to β-lactamase; type: biochemical; conditions: 10% DMSO, 37° C.
T2 construct: purchased MilliporeSigma
Protocol: as §3
(§4) 96-well plate. Substrate Compound 2 was dissolved in DMSO at a concentration of two mg/ml. Fifteen μL of Substrate Compound 2 was added to a well of a 96-well plate. […] The samples of Substrate Compound 2 in β-lactamases from Bacillus cereus (200 U/mL in M sodium phosphate buffer, pH 7) were incubated for thirty minutes at 37° C. before the absorbance of the solution from 230 to 650 nm was measured using a BioTekQ®
(§5) Cytation3 plate reader. For the samples in Pseudomonas aeruginosa (50 U/mL in 0.15 M sodium phosphate buffer, pH 7), the absorbance was measured after ninety minutes at 37° C. […] For the samples in Enterobacter cloacae (1 U/ml in M sodium phosphate buffer, pH 7), the absorbance was measured after three hours at 37° C. […]

[3] = biological target: T3, β-lactamase from Pseudomonas aeruginosa (Pseudomonas aeruginosa, UniProt P24735); assay: Colorimetric / UV-vis response to β-lactamase; type: biochemical; conditions: 10% DMSO, 37° C.
T3 construct: purchased MilliporeSigma
Protocol: as §3, §4, §5

Aqueous solubility = type: physicochemical
[4] = system: β-lactamases from Bacillus cereus, Pseudomonas aeruginosa, and Enterobacter cloacae; assay: Michaelis-Menten kinetics of hydrolysis; type: biochemical; conditions: compared with commercially available chromogenic β-lactamase substrates
Protocol: To further characterize substrate-enzyme relationships between Substrate Compound 2 and β-lactamases, kinetic parameters were measured using Michaelis-Menten kinetics.
Parameters were determined for Substrate Compound 2 and commercially available chromogenic β-lactamase substrates CENTA and nitrocefin as comparisons, using different β-lactamases. All kinetic experiments were performed for concentrations of Substrate Compound 2 ranging from 0.025-0.2 mg/mL with 10% DMSO, and concentrations of 4 ranging from 1.5-12.1 mg/mL in 0.15 M sodium phosphate buffer pH 7 at 37° C. Hydrolysis of Substrate Compound 2 was measured by continuously recording the change in absorbance at 410 nm on a BioTekQ® Cytation3 plate reader. The kM, kcat, and VMax values were calculated through the initial velocities and the direct fitting of the Michaelis-Menten curve to the data through GraphPad Prism software.

T1 sequence (P04190 31-257): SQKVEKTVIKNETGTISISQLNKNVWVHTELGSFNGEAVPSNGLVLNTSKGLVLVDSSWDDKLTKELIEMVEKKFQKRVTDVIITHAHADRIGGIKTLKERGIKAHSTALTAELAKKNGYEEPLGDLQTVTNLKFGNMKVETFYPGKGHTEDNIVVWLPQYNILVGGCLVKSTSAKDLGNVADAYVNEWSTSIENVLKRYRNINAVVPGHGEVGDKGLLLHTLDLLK
T3 sequence (P24735 27-397): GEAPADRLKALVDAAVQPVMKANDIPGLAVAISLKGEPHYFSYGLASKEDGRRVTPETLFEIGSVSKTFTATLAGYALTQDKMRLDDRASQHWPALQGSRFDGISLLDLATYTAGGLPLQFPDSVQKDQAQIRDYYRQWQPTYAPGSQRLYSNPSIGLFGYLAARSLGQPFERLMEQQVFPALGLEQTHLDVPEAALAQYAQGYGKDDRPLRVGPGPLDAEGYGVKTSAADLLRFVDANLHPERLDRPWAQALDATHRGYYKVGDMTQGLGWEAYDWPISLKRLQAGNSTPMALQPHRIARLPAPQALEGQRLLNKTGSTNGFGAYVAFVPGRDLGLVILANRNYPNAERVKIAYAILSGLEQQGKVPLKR
T2 sequence (P05364 21-381): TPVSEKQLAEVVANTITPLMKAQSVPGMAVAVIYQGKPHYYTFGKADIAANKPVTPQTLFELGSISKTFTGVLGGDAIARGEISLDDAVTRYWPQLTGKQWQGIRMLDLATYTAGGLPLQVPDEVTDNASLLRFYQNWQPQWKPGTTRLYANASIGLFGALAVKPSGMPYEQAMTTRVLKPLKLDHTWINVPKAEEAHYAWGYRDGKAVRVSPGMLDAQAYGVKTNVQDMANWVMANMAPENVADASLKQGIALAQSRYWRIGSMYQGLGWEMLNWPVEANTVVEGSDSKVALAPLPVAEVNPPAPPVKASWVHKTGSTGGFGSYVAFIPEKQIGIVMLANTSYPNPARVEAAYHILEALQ

Question: For `O=C(Cc1cccs1)N[C@@H]1C(=O)N2C(C(=O)O)=C(CSc3ccc([N+](=O)[O-])c(C(=O)O)c3)CS[C@H]12` [CENTA], which “Absorbance/time response in penicillinase, comparison with CENTA” value (penicillinase) is on record?
Answer: reaches its maximum absorbance at a faster rate than Compound 1 (ANT)

Question: And the “Antibacterial activity against gram-negative species” value (gram-negative species)?
Answer: not antibacterial

Question: What about the “Antibacterial activity against Staphylococcus aureus” value (Staphylococcus aureus) of the same compound?
Answer: some activity

Question: With `COc1ccc(COC(=O)C2=C(CSc3ccc([N+](=O)[O-])cc3)CSC3C(N)C(=O)N23)cc1` (stereo not drawn) [Compound 1] as the compound, how does the “Color change in penicillinase compared to PBS” value (penicillinase; 1.5 hours at 37° C.) read?
Answer: showed a significant color change

Question: And the “Shift of maximum absorbance peak on cleavage by penicillinase” value (penicillinase; 1.5 hours at 37° C.)?
Answer: maximum absorbance peak shifts from 345 nm to 410 nm

Question: What about the “Color change of the conjugate incubated in penicillinase or phosphate-buffered saline” value (penicillinase; Example 1, protected conjugate of ACLE and NBT) of the same compound?
Answer: does not undergo a color change

Question: What about the “Absorbance/time response in penicillinase, comparison with CENTA” value (penicillinase) of the same compound?
Answer: behave similarly

Question: For `CN(C)c1ccc(N=Nc2cccc[n+]2CC2=C(C(=O)[O-])N3C(=O)[C@@H](NC(=O)Cc4cccs4)[C@H]3SC2)cc1` [PADAC], which “Antibacterial activity against gram-negative species” value (gram-negative species) is on record?
Answer: not antibacterial

Question: What about the “Antibacterial activity against Staphylococcus aureus” value (Staphylococcus aureus) of the same compound?
Answer: some activity

Question: Which MIC (E. coli 25922) does the source give for `NC1C(=O)N2C(C(=O)O)=C(CSc3ccc([N+](=O)[O-])cc3)CSC12` (stereo not drawn) [Substrate Compound 2] here?
Answer: > 128 µg/mL

Question: What about the MIC (P. aeruginosa PA01) of the same compound?
Answer: > 128 µg/mL

Question: And the MIC (S. aureus 25923)?
Answer: 8 µg/mL (≈ 21.8 µM)

Question: What about the MIC (S. aureus 29213) of the same compound?
Answer: 8 µg/mL (≈ 21.8 µM)

Question: And the MIC (MRSA MW2)?
Answer: > 128 µg/mL

Question: And the MIC (B. cereus)?
Answer: > 128 µg/mL

Question: And the MIC (E. cloacae)?
Answer: > 128 µg/mL

Question: And the “Lower detection limit of β-lactamase” value ([1]; absorbance at 410 nm, 45 minutes at 37° C., β-lactamase 0.78-400 U/mL)?
Answer: approximately 3.12 U/mL

Question: And the “Color change when mixed with β-lactamase” value ([1]; β-lactamase from Bacillus cereus, 10% DMSO, 37° C.)?
Answer: changed color from clear to yellow

Question: And the “Color change when mixed with β-lactamase” value [2]?
Answer: changed color from clear to yellow

Question: And the “Color change when mixed with β-lactamase” value [3]?
Answer: changed color from clear to yellow

Question: And the Aqueous solubility (Aqueous solubility)?
Answer: not soluble in aqueous conditions

Question: And the “Kinetic rate of hydrolysis by β-lactamases” value [4]?
Answer: kinetic rate similar to commercially available chromogenic β-lactamase substrates

Question: Which “Antibacterial activity against gram-negative species” value (gram-negative species) does the source give for `O=C(Cc1cccs1)N[C@@H]1C(=O)N2C(C(=O)O)=C(/C=C/c3ccc([N+](=O)[O-])cc3[N+](=O)[O-])CS[C@H]12` [nitrocefin] here?
Answer: not antibacterial

Question: And the “Antibacterial activity against Staphylococcus aureus” value (Staphylococcus aureus)?
Answer: some activity
